Measured values as given in PubChem BioAssay (NCI).
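How tested: cells in 96-well plates exposed to compound for 48 hours at five concentrations. TGI: concentration producing complete growth inhibition.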

How the values were obtained:
Assay in all cases: NCI anticancer screen, dose series, 48 h
[1] = system: NCI-H23 lung
[2] = system: HS 578T breast
[3] = system: KM12 colon
[4] = system: HL-60(TB) leukemia
[5] = system: MALME-3M melanoma
[6] = system: SK-MEL-2 melanoma
[7] = system: RPMI-8226 leukemia
[8] = system: MOLT-4 leukemia
[9] = system: A549 NSCLC
[10] = system: T-47D breast
[11] = system: SK-MEL-28 melanoma
[12] = system: ACHN renal
[13] = system: MDA-N
[14] = system: SK-MEL-5 melanoma
[15] = system: HOP-92 NSCLC
[16] = system: HCT-116 colon
[17] = system: OVCAR-8 ovarian
[18] = system: SW-620 colon
[19] = system: RXF 393 renal
[20] = system: MDA-MB-231 breast
[21] = system: OVCAR-4 ovarian
[22] = system: NCI-H522 lung
[23] = system: SNB-19 CNS
[24] = system: U251 CNS
[25] = system: UO-31 renal
[26] = system: SK-OV-3 ovarian
[27] = system: K-562 leukemia
[28] = system: BT-549 breast
[29] = system: OVCAR-5 ovarian
[30] = system: HCT-15 colon
[31] = system: TK-10 renal
[32] = system: MCF7 breast
[33] = system: LOX IMVI melanoma
[34] = system: MDA-MB-435
[35] = system: HOP-62 NSCLC
[36] = system: SN12C renal
[37] = system: M14 melanoma
[38] = system: A498 renal
[39] = system: PC-3 prostate
[40] = system: NCI/ADR-RES ovarian
[41] = system: IGROV1 ovarian
[42] = system: SF-268 CNS
[43] = system: UACC-257 melanoma
[44] = system: 786-0 renal
[45] = system: HT29 colon
[46] = system: CAKI-1 renal
[47] = system: DU-145 prostate
[48] = system: UACC-62 melanoma
[49] = system: COLO 205 colon
[50] = system: EKVX NSCLC
[51] = system: SF-295 CNS
[52] = system: CCRF-CEM leukemia
[53] = system: NCI-H226 lung
[54] = system: NCI-H460 lung
[55] = system: HCC-2998 colon
[56] = system: SR leukemia
[57] = system: SF-539 CNS
[58] = system: OVCAR-3 ovarian
[59] = system: SNB-75 CNS

COC(=O)c1c(C#N)c(N)nc2c1CCC2
TGI [1]: > 100 µM
TGI [2]: > 100 µM
TGI [3]: > 100 µM
TGI [4]: > 100 µM
TGI [5]: > 100 µM
TGI [6]: > 100 µM
TGI [7]: > 100 µM
TGI [8]: > 100 µM
TGI [9]: > 100 µM
TGI [10]: > 100 µM
TGI [11]: > 100 µM
TGI [12]: > 100 µM
TGI [13]: > 100 µM
TGI [14]: > 100 µM
TGI [15]: > 100 µM
TGI [16]: > 100 µM
TGI [17]: > 100 µM
TGI [18]: > 100 µM
TGI [19]: > 100 µM
TGI [20]: > 100 µM
TGI [21]: > 100 µM
TGI [22]: > 100 µM
TGI [23]: > 100 µM
TGI [24]: > 100 µM
TGI [25]: > 100 µM
TGI [26]: > 100 µM
TGI [27]: > 100 µM
TGI [28]: > 100 µM
TGI [29]: > 100 µM
TGI [30]: > 100 µM
TGI [31]: > 100 µM
TGI [32]: > 100 µM
TGI [33]: > 100 µM
TGI [34]: > 100 µM
TGI [35]: > 100 µM
TGI [36]: > 100 µM
TGI [37]: > 100 µM
TGI [38]: > 100 µM
TGI [39]: > 100 µM
TGI [40]: > 100 µM
TGI [41]: > 100 µM
TGI [42]: > 100 µM
TGI [43]: > 100 µM
TGI [44]: > 100 µM
TGI [45]: > 100 µM
TGI [46]: > 100 µM
TGI [47]: > 100 µM
TGI [48]: > 100 µM
TGI [49]: > 100 µM
TGI [50]: > 100 µM
TGI [51]: > 100 µM
TGI [52]: > 100 µM
TGI [53]: > 100 µM
TGI [54]: > 100 µM
TGI [55]: > 100 µM

CC(C)=CCC/C(C)=C/COc1c2ccoc2cc2oc(=O)ccc12
TGI [1]: > 100 µM
TGI [2]: > 100 µM
TGI [3]: > 100 µM
TGI [4]: 50.5 µM
TGI [5]: 99.6 µM
TGI [6]: 38.3 µM
TGI [7]: 42.1 µM
TGI [8]: 42.3 µM
TGI [9]: > 100 µM
TGI [10]: > 100 µM
TGI [11]: > 100 µM
TGI [12]: 83.8 µM
TGI [13]: > 100 µM
TGI [14]: 28.6 µM
TGI [15]: > 100 µM
TGI [16]: 85.4 µM
TGI [17]: > 100 µM
TGI [18]: > 100 µM
TGI [20]: 86.5 µM
TGI [21]: > 100 µM
TGI [22]: 74.8 µM
TGI [23]: > 100 µM
TGI [24]: 55.5 µM
TGI [25]: 59.7 µM
TGI [26]: 82.6 µM
TGI [27]: > 100 µM
TGI [28]: > 100 µM
TGI [29]: 75.8 µM
TGI [30]: > 100 µM
TGI [31]: > 100 µM
TGI [32]: 61.4 µM
TGI [33]: 46.4 µM
TGI [34]: > 100 µM
TGI [35]: > 100 µM
TGI [36]: > 100 µM
TGI [37]: 89.1 µM
TGI [38]: 68.2 µM
TGI [39]: > 100 µM
TGI [40]: > 100 µM
TGI [41]: > 100 µM
TGI [42]: > 100 µM
TGI [43]: 90.4 µM
TGI [44]: > 100 µM
TGI [45]: 81.1 µM
TGI [46]: > 100 µM
TGI [48]: 38.3 µM
TGI [56]: 43.1 µM
TGI [49]: 32.4 µM
TGI [50]: 72 µM
TGI [51]: 75.3 µM
TGI [52]: 50.2 µM
TGI [53]: 87.6 µM
TGI [54]: > 100 µM
TGI [57]: > 100 µM
TGI [58]: 57.6 µM
TGI [55]: 79.7 µM

C=C(C)COC1CCCCO1 (stereo unspecified)
TGI [1]: > 100 µM
TGI [2]: > 100 µM
TGI [3]: > 100 µM
TGI [4]: > 100 µM
TGI [5]: > 100 µM
TGI [6]: > 100 µM
TGI [59]: > 100 µM
TGI [7]: > 100 µM
TGI [8]: > 100 µM
TGI [9]: > 100 µM
TGI [10]: > 100 µM
TGI [11]: > 100 µM
TGI [12]: > 100 µM
TGI [13]: > 100 µM
TGI [14]: > 100 µM
TGI [16]: > 100 µM
TGI [17]: > 100 µM
TGI [18]: > 100 µM
TGI [20]: > 100 µM
TGI [22]: > 100 µM
TGI [23]: > 100 µM
TGI [24]: > 100 µM
TGI [25]: > 100 µM
TGI [26]: > 100 µM
TGI [27]: > 100 µM
TGI [28]: > 100 µM
TGI [29]: > 100 µM
TGI [30]: > 100 µM
TGI [31]: > 100 µM
TGI [32]: > 100 µM
TGI [33]: > 100 µM
TGI [34]: > 100 µM
TGI [35]: > 100 µM
TGI [36]: > 100 µM
TGI [37]: > 100 µM
TGI [38]: > 100 µM
TGI [39]: > 100 µM
TGI [40]: > 100 µM
TGI [41]: > 100 µM
TGI [42]: > 100 µM
TGI [43]: > 100 µM
TGI [44]: > 100 µM
TGI [45]: > 100 µM
TGI [46]: > 100 µM
TGI [47]: > 100 µM
TGI [48]: > 100 µM
TGI [49]: > 100 µM
TGI [50]: > 100 µM
TGI [51]: > 100 µM
TGI [52]: > 100 µM
TGI [53]: > 100 µM
TGI [54]: > 100 µM
TGI [57]: > 100 µM
TGI [58]: > 100 µM
TGI [55]: > 100 µM
